Data taken from patent US8829200B2, “Benzimidazole inhibitors of leukotriene production” (Boehringer Ingelheim International GmbH, priority 2010, dated 2014).

Key:
[1] = target: recombinant human FLAP protein (Homo sapiens (Human), UniProt P20292); experiment: FLAP binding assay (Scintillation Proximity Assay); settings: displacement of [125I]L-691,831, membranes of sf9 cells expressing human FLAP; read-out: SPA IC50
Procedure: Compounds are assessed for the ability to bind to FLAP in a binding assay that measures compound-specific displacement of an iodinated (^125I) FLAP inhibitor via a Scintillation Proximity Assay format (adapted from S. Charleson et al., Mol. Pharmacol., 1992, 41, 873-879).
Cell pellets produced from sf9 insect cells expressing recombinant human FLAP protein are resuspended in buffer A [15 mM Tris-HCl (pH 7.5), 2 mM MgCl2, 0.3 mM EDTA, 1 mM PMSF]. The cells are lysed with a Dounce homogenizer and the material is centrifuged at 10,000×g for 10 minutes. The supernatant is then collected and centrifuged at 100,000×g for 60 minutes. To prepare membrane protein for an assay, an aliquot of the 100,000×g pellet is resuspended in 1 ml of buffer A, Dounce homogenized, and finally subjected to polytron mixing (30 seconds). Membrane protein (25 μl, 5 μg) is mixed with WGA SPA beads (Amersham) and stirred for 1 h. To an assay plate (Perkin Elmer FlexiPlate) is added 25 μl of test compound prepared in Binding buffer [100 mM Tris (pH 7.5), 140 mM NaCl, 5% glycerol, 2 mM EDTA, 0.5 mM TCEP, 0.05% Tween 20], 25 μl of [^125I]L-691,831 (an iodinated analog of MK-591, Charleson et al. Mol. Pharmacol., 41, 873-879, 1992) and finally 50 μl of the bead/protein mixture. (final concentrations: beads, 200 μg/well; protein, 5 μg/well; [^125I] probe, 0.08 nM/well (17 nCi/well). The plates are shaken for 2 h before reading on a Microbeta plate reader. Non-specific binding is determined by the addition of 10 μM cold L-691,831 compound.

[2] = tested on: synthesis of LTB4 in human whole blood; experiment: human whole blood LTB4 production inhibition assay; format: cell-based; settings: heparinized human whole blood, calcimycin-stimulated, plasma LTB4; read-out: hWB IC50
Procedure: Compounds are additionally tested in a human whole blood assay to determine their ability to inhibit the synthesis of LTB4 in a cellular system. Compounds are combined with heparinized human whole blood and incubated for 15 minutes at 37° C. Calcimycin ([…], prepared in phosphate-buffered saline, pH 7.4) is then added and the mixture is incubated for another 30 minutes at 37° C. The samples are centrifuged for 5 min at low speed (1500×g) and the plasma layer is removed. Plasma LTB4 concentrations are then measured using an antibody-based homogenous time-resolved fluorescence method (CisBio, Bedford, Mass.).

Sequence of recombinant human FLAP protein (P20292 whole entry): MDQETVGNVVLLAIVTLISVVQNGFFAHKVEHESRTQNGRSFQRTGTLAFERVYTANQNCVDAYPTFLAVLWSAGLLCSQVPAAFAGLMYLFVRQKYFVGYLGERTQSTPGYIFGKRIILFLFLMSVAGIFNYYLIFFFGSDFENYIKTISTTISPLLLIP

IC50 [1]	IC50 [2]	SMILES
1400 nM	–	CC(C)(C)n1c(-c2ccccc2C(=O)O)nc2cc(-c3cnc(N)nc3)ccc21 [Example 1, 2-[5-(2-Amino-pyrimidin-5-yl)-1-tert-butyl-1H-benzoimidazol-2-yl]-benzoic acid]
25.2 nM	2190 nM	CC(C)(C)n1c(-c2ccccc2C(=O)NC2CC2)nc2cc(-c3cnc(N)nc3)ccc21 [Example 2, 2-[5-(2-Amino-pyrimidin-5-yl)-1-tert-butyl-1H-benzoimidazol-2-yl]-N-cyclopropyl-benzamide]
0.91 nM	763 nM	CC(C)(C)n1c(-c2ccccc2C(=O)Nc2ccncc2)nc2cc(-c3cnc(N)nc3)ccc21 [Example 3, 2-[5-(2-Amino-pyrimidin-5-yl)-1-tert-butyl-1H-benzoimidazol-2-yl]-N-pyridin-4-yl-benzamide]
11.4 nM	433 nM	CNC(=O)c1ccccc1-c1nc2cc(-c3cnc(N)nc3)ccc2n1C(C)(C)C [Example 4, 2-[5-(2-Amino-pyrimidin-5-yl)-1-tert-butyl-1H-benzoimidazol-2-yl]-N-methyl-benzamide]
–	357 nM	CNC(=O)c1cc(F)c(F)cc1-c1nc2cc(-c3cnc(N)nc3)ccc2n1C(C)(C)C [Example 5, 2-[5-(2-Amino-pyrimidin-5-yl)-1-tert-butyl-1H-benzoimidazol-2-yl]-4,5-difluoro-N-methyl-benzamide]
5.07 nM	130 nM	CNC(=O)c1ccc(F)cc1-c1nc2cc(-c3cnc(N)nc3)ccc2n1C(C)(C)C [Example 6, 2-[5-(2-Amino-pyrimidin-5-yl)-1-tert-butyl-1H-benzoimidazol-2-yl]-4-fluoro-N-methyl-benzamide]
21.9 nM	414 nM	CNC(=O)c1cc(OC)ccc1-c1nc2cc(-c3cnc(N)nc3)ccc2n1C(C)(C)C [Example 7, 2-[5-(2-Amino-pyrimidin-5-yl)-1-tert-butyl-1H-benzoimidazol-2-yl]-5-methoxy-N-methyl-benzamide]
7.4 nM	94 nM	CNC(=O)c1ccc(C#N)cc1-c1nc2cc(-c3cnc(N)nc3)ccc2n1C(C)(C)C [Example 8, 2-[5-(2-Amino-pyrimidin-5-yl)-1-tert-butyl-1H-benzoimidazol-2-yl]-4-cyano-N-methyl-benzamide]
111 nM	> 5000 nM	CNC(=O)c1ccc(-c2nn[nH]n2)cc1-c1nc2cc(-c3cnc(N)nc3)ccc2n1C(C)(C)C [Example 9, 2-[5-(2-Amino-pyrimidin-5-yl)-1-tert-butyl-1H-benzoimidazol-2-yl]-N-methyl-4-(2H-tetrazol-5-yl)-benzamide]
6.09 nM	–	CC(C)(C)n1c(-c2cc(C#N)ccc2C(=O)NC#N)nc2cc(-c3cnc(N)nc3)ccc21 [Example 10, 2-[5-(2-Amino-pyrimidin-5-yl)-1-tert-butyl-1H-benzoimidazol-2-yl]-4-cyano-N-cyano-benzamide]
55.6 nM	–	CC(C)(C)n1c(-c2cc(C#N)ccc2C(=O)NS(C)(=O)=O)nc2cc(-c3cnc(N)nc3)ccc21 [Example 11, N-{2-[5-(2-Amino-pyrimidin-5-yl)-1-tert-butyl-1H-benzoimidazol-2-yl]-4-cyano-benzoyl}-methanesulfonamide]
610 nM	> 5000 nM	CN(C)C(=O)c1ccc(F)c(-c2nc3cc(-c4cnc(N)nc4)ccc3n2C(C)(C)C)c1 [Example 12, 3-[5-(2-Amino-pyrimidin-5-yl)-1-tert-butyl-1H-benzoimidazol-2-yl]-4-fluoro-N,N-dimethyl-benzamide]
–	1150 nM	CC(C)(C)n1c(-c2ccccc2C(N)=O)nc2cc(-c3cnc(N)nc3)ccc21 [Example 14, 2-[5-(2-Amino-pyrimidin-5-yl)-1-tert-butyl-1H-benzoimidazol-2-yl]-benzamide]
220 nM	> 5000 nM	CC(C)(C)n1c(-c2cc(C(=O)O)ccc2F)nc2cc(-c3cnc(N)nc3)ccc21 [Example 15, 3-[5-(2-Amino-pyrimidin-5-yl)-1-tert-butyl-1H-benzoimidazol-2-yl]-4-fluoro-benzoic acid]
645 nM	–	CC(C)(C)n1c(-c2cccc(C(=O)O)c2)nc2cc(-c3cnc(N)nc3)ccc21 [Example 16, 3-[5-(2-Amino-pyrimidin-5-yl)-1-tert-butyl-1H-benzoimidazol-2-yl]-benzoic acid]
22 nM	–	COC(=O)c1ccccc1-c1nc2cc(-c3cnc(N)nc3)ccc2n1C(C)(C)C [Example 17, 2-[5-(2-Amino-pyrimidin-5-yl)-1-tert-butyl-1H-benzoimidazol-2-yl]-benzoic acid methyl ester]
18.8 nM	2440 nM	CC(C)(C)n1c(-c2ccccc2C(=O)NCC2CCCO2)nc2cc(-c3cnc(N)nc3)ccc21 (stereo not shown) [Example 18, 2-[5-(2-Amino-pyrimidin-5-yl)-1-tert-butyl-1H-benzoimidazol-2-yl]-N-(tetrahydro-furan-2-ylmethyl)-benzamide]
43.8 nM	2870 nM	COCCNC(=O)c1ccccc1-c1nc2cc(-c3cnc(N)nc3)ccc2n1C(C)(C)C [Example 19, 2-[5-(2-Amino-pyrimidin-5-yl)-1-tert-butyl-1H-benzoimidazol-2-yl]-N-(2-methoxy-ethyl)-benzamide]
2.2 nM	2700 nM	CC(C)(C)n1c(-c2ccccc2C(=O)Nc2ccccn2)nc2cc(-c3cnc(N)nc3)ccc21 [Example 20, 2-[5-(2-Amino-pyrimidin-5-yl)-1-tert-butyl-1H-benzoimidazol-2-yl]-N-pyridin-2-yl-benzamide]
14.7 nM	3290 nM	CC(C)(C)NC(=O)c1ccccc1-c1nc2cc(-c3cnc(N)nc3)ccc2n1C(C)(C)C [Example 21, 2-[5-(2-Amino-pyrimidin-5-yl)-1-tert-butyl-1H-benzoimidazol-2-yl]-N-tert-butyl-benzamide]
1.5 nM	2250 nM	CC(C)(C)n1c(-c2ccccc2C(=O)Nc2cccnc2)nc2cc(-c3cnc(N)nc3)ccc21 [Example 22, 2-[5-(2-Amino-pyrimidin-5-yl)-1-tert-butyl-1H-benzoimidazol-2-yl]-N-pyridin-3-yl-benzamide]
17.4 nM	2230 nM	CCNC(=O)c1ccccc1-c1nc2cc(-c3cnc(N)nc3)ccc2n1C(C)(C)C [Example 23, 2-[5-(2-Amino-pyrimidin-5-yl)-1-tert-butyl-1H-benzoimidazol-2-yl]-N-ethyl-benzamide]
140 nM	2870 nM	CN(C)CCNC(=O)c1ccccc1-c1nc2cc(-c3cnc(N)nc3)ccc2n1C(C)(C)C [Example 24, 2-[5-(2-Amino-pyrimidin-5-yl)-1-tert-butyl-1H-benzoimidazol-2-yl]-N-(2-dimethylamino-ethyl)-benzamide]
460 nM	> 5000 nM	CC(C)(C)n1c(-c2ccccc2C(=O)NC2CCNCC2)nc2cc(-c3cnc(N)nc3)ccc21 [Example 25, 2-[5-(2-Amino-pyrimidin-5-yl)-1-tert-butyl-1H-benzoimidazol-2-yl]-N-piperidin-4-yl-benzamide]
180 nM	–	CN(C(=O)c1ccccc1-c1nc2cc(-c3cnc(N)nc3)ccc2n1C(C)(C)C)c1ccccn1 [Example 27, 2-[5-(2-Amino-pyrimidin-5-yl)-1-tert-butyl-1H-benzoimidazol-2-yl]-N-methyl-N-pyridin-2-yl-benzamide]
–	413 nM	CCNC(=O)c1ccc(F)cc1-c1nc2cc(-c3cnc(N)nc3)ccc2n1C(C)(C)C [Example 30, 2-[5-(2-Amino-pyrimidin-5-yl)-1-tert-butyl-1H-benzoimidazol-2-yl]-N-ethyl-4-fluoro-benzamide]
–	1950 nM	CC(C)(C)n1c(-c2cc(F)ccc2C(=O)Nc2cccnc2)nc2cc(-c3cnc(N)nc3)ccc21 [Example 31, 2-[5-(2-Amino-pyrimidin-5-yl)-1-tert-butyl-1H-benzoimidazol-2-yl]-4-fluoro-N-pyridin-3-yl-benzamide]
–	939 nM	CC(C)(C)n1c(-c2cc(F)ccc2C(=O)NCc2cccnc2)nc2cc(-c3cnc(N)nc3)ccc21 [Example 32, 2-[5-(2-Amino-pyrimidin-5-yl)-1-tert-butyl-1H-benzoimidazol-2-yl]-4-fluoro-N-pyridin-3-ylmethyl-benzamide]
4700 nM	–	COc1cncc(-c2ccc3c(c2)nc(-c2cccc(C(N)=O)c2)n3C(C)(C)C)c1 [Example 35, 3-[1-tert-Butyl-5-(5-methoxy-pyridin-3-yl)-1H-benzoimidazol-2-yl]-benzamide]
